Earlier results in US20240400534A1, “CHEMICAL TOOLS FOR DRUG TARGET IDENTIFICATION AND CHARACTERIZATION” (Dana-Farber Cancer Institute, Inc., priority 2021, published 2024).

Molecular target: USP7 (Homo sapiens, UniProt Q93009)
Settings: selective covalent inhibitor of the DUB USP7

USP7, sequence (Q93009 whole entry): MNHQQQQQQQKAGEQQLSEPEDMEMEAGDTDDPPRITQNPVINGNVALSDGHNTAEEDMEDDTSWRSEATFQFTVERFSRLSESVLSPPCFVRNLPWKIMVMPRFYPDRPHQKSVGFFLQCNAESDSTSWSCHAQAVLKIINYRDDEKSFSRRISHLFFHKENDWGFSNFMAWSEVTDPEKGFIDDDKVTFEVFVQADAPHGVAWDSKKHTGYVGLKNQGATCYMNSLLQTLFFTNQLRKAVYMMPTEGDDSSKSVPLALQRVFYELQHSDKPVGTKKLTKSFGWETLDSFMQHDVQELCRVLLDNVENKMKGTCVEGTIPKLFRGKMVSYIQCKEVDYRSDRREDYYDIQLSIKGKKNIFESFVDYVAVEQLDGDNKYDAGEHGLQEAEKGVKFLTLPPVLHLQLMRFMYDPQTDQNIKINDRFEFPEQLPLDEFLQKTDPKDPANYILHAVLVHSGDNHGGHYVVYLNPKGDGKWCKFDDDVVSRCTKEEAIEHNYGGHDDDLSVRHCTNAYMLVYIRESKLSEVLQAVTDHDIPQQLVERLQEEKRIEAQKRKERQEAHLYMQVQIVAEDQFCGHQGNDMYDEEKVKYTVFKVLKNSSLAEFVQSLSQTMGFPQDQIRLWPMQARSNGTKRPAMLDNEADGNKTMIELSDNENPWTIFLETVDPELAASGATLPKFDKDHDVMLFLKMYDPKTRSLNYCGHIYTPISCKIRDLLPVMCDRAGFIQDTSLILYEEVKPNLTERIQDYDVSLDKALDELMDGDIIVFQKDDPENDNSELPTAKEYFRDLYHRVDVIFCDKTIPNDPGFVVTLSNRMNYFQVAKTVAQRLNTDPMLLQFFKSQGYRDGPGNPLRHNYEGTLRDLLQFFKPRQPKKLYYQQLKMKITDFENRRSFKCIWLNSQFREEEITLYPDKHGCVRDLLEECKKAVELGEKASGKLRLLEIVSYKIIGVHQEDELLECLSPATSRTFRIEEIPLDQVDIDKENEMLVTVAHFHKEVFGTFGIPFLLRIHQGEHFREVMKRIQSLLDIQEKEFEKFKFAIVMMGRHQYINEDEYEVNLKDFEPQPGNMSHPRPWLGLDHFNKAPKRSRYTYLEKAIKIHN

IC50: 0.3 nM
SMILES: CN1CCN(CCC(=O)Nc2ccc3c(=O)n(CC4(O)CCN(C(=O)[C@@H](CCCNC(=O)c5ccc6c(Cl)c7c(nc6c5)CCCC7)Cc5ccccc5)CC4)cnc3c2)CC1 [XL177A]
